Columns and labels:
[1] = tested on: VvEDS1; assay: Induction of plant defense gene VvEDS1 in grapevine calli, qRT-PCR (Example 5); assay type: cell-based, V. vinifera L. cv. Chardonnay; conditions: 10 mM in MPM1 medium, 4 days of culture; overexpressed when induction ratio ≧4
[2] = tested on: VvPR1; assay: Induction of plant defense gene VvPR1 in grapevine calli, qRT-PCR (Example 5); assay type: cell-based, V. vinifera L. cv. Chardonnay; conditions: 10 mM in MPM1 medium, 4 days of culture; overexpressed when induction ratio ≧4

O=C1[O][Bi]([OH])[O]c2ccccc21 [bismuth subsalicylate]
expression of VvEDS1 gene [1]: overexpress
expression of VvPR1 gene [2]: overexpress

O=C(O)c1ccccc1O [salicylic acid]
expression of VvEDS1 gene [1]: overexpress
expression of VvPR1 gene [2]: overexpress

Source: patent US20170311603A1 (priority 2014, published 2017)
